{
  "source": "patent US6683162B2",
  "about": "“Targeted alpha particle therapy using actinium-255 conjugates” (Sloan Kettering Institute of Cancer Research, priority 2000, dated 2004)",
  "key": {"[1]": {"system": "antigen negative cells (Daudi)", "assay": "Cell based immunoreactivity assay, antigen negative cells", "format": "binding", "conditions": "on ice", "procedure": "A cell based immunoreactivity assay (binding of labeled antibody to antigen excess) was used to determine the percentage of HuM195 that retained its immunoreactivity after conjugation and purification. The assay was conducted with antigen positive cells (HL60, available from American Tissue Culture Collection [ATCC]) and antigen negative cells (Daudi, ATCC).\nThe cells were centrifuged, the supernatant removed and the cells resuspended to a density of 10^8 cells/ml in 2% w/v bovine serum albumin in phosphate buffered saline, pH 7.2 (PBS). Aliquots of cell suspension ([…]) were transferred to microcentrifuge tubes placed on ice to which purified ^225Ac-HuM195-DOTA (3 ng) was added. The cell suspensions were incubated for 30 min, centrifuged and the supernatant containing any unbound ^225Ac-HuM195-DOTA was transferred to a second microcentrifuge tube of cell suspension. The second tube was incubated on ice for 30 min. The first cell pellets were washed with PBS and the cells and washes saved for γ emission counting. The second set of cell suspensions were centrifuged, the supernatant removed and the pellets were washed with PBS. The set of supernate, cell pellets and washes were saved for counting. The percentage of radioactivity that was associated with the cells was then determined."}, "Daudi lymphoma cells": {"system": "Daudi lymphoma cells", "assay": "In vivo efficacy against disseminated Daudi lymphoma", "parameters": "species or system mouse", "conditions": "irrelevant control, day 1", "procedure": "Daudi lymphoma cells are disseminated into 8-12 week old female Scid mice via an intravenous (i.v.) injection of 5E6 Daudi tumor cells in the tail vein; mice experience a 100% tumor take rate in the model (20). In this lymphoma therapy experiment mice are treated 1 day post-tumor dissemination via intravenous injection. Animals are monitored for signs of illness and hind leg paralysis or inability to breathe or ambulate at which time they are sacrificed.\nIn the first experiment with this disseminated model, mice are treated 1 day post-tumor dissemination with a single dose of labeled specific [225Ac]B4 at three different dose levels, irrelevant control [225Ac]HuM195 at two dose levels, or a mass of unlabeled B4 matching the antibody mass dose administered in the highest dose level radiolabeled groups. Control groups receiving the irrelevant [225Ac]HuM195 have median survival times from xenograft of 43 days and 36 days. Mice receiving 0.003 mg unlabeled B4 per mouse have a median survival time of 57 days from xenograft. The mice receiving a single injection of [225Ac]B4 show dose-related increases in median survival times from xenograft to 165, 137 and 99 days, respectively. The dose response of [225Ac]B4 is significant with P=0.05. […]"}, "HL60 cells": {"system": "HL60 cells", "assay": "In vitro internalization of 225Ac-HuM195-DOTA", "format": "cell-based, human", "conditions": "37° C., in 5 hours", "procedure": "The internalizing ability of the purified ^225Ac-HuM195-DOTA was tested with HL60 cells. The cells were washed twice with complete media and then incubated for 20 min on ice in complete media containing 2% rabbit serum. The cells were washed twice with ice cold complete media and then resuspended in 5 ml of complete media at a density of 5×10^6 cells/ml. After placing the cell suspension on ice purified ^225Ac-HuM195-DOTA (15 ng) was added. After mixing a sample of the sample of the cell suspension as taken and the rest of the cell suspension was placed into a 37° C. incubator. At various time points samples of the cell suspensions were taken. The samples were centrifuged, the supernatant removed and the cells washed twice with ice cold PBS. Stripping buffer (50 mM glycine, 150 mM NaCl, pH 2.8) was added to the cells and allowed to incubate for 10 min at room temperature. The cells were centrifuged and the supernatant drawn off and saved for counting. The cell pellet was washed once with PBS and both the cell pellet and wash were saved for counting."}},
  "data": [
    {"substance": "225Ac-HuM195-DOTA", "values": [
      {"measurement": "activity retained by the cells (immunoreactivity)", "setting": "[1]", "value": 2, "unit": "%"},
      {"measurement": "median survival time from xenograft", "setting": "Daudi lymphoma cells; first-named of two dose levels (5550 Bq per FIG. 8A, order assumed)", "value": 43, "unit": "days"},
      {"measurement": "median survival time from xenograft", "setting": "Daudi lymphoma cells; second-named of two dose levels (1850 Bq per FIG. 8A, order assumed)", "value": 36, "unit": "days"},
      {"measurement": "activity internalized", "setting": "HL60 cells", "value": 50, "unit": "%"}
    ]}
  ]
}
